# Assay results reported in patent US20170122958A1, “Enzymes Functional Probes” (University of Dundee, priority 2013, published 2017).
# Legend:
# Assay in all cases: ITC reverse titration of protein into compound
# Assay type in all cases: binding
# [1] = biological target: T1, brdt(1)L063A (Homo sapiens, UniProt Q58F21, L63A); settings: 30° C.
# T1 construct: Plasmids of the eight single BET bromodomain constructs Brd2(1), Brd2(2), Brd3(1), Brd3(2), Brd4(1), Brd4(2), Brdt(1) and Brdt(2); His6 (N); made in house; host or cells: E. coli BL21(DE3)
# Experimental: (§1) Results obtained were very promising, showing small shifts from 1.2° C. to a maximum of 2.6° C. for all the eight BET wild types and shifts from 5.4° C. to 13.4° C. for all the leucine to alanine mutants.
# (§2) For all mutants, protein was titrated at a concentration between 150-200 μM into a solution of the compound at a concentration of 15-20 μM. In the case of the wild types, protein was titrated at a concentration of 350-400 μM into a solution of the compound between 15-20 μM. FIG. 11 is an illustrative example of the curves obtained for the Brd3(1) bromodomain construct and its respective leucine to alanine mutant titrated into compound 11. We can easily observe a hyperbolic shape for the titration of wild type Brd3(1) into compound 11, corresponding to a low affinity interaction, while for Brd3(1)*(Leu070-Ala) we can easily observe a sharp sigmoidal behaviour corresponding to a high affinity interaction. Furthermore, there is a clear difference in the ΔH produced by each interaction. (ΔH=−22 kcal/mol vs. mutant compared to −7 kcal/mol vs. wild type).
# (§3) ITC experiments were carried out on a ITC200 instrument from MicroCal™ Experiments were conducted at 3 different temperatures 15° C., 25° C. and 30° C., while stirring at 1000 rpm. Buffers of proteins, peptide and compounds were matched to 20 mM HEPES pH 7.5 at 25° C. and 100 mM NaCl. Frozen protein was buffer exchanged as described for the DSF experiments. Each titration comprised 1 initial injection of 0.4 μl lasting 0.8 s, followed by 19 injections of 2 μl lasting 4 s each at 2 min intervals. The initial injection was discarded during data analysis. Standard and reverse titrations were conducted depending on the binding partners.
# (§4) Reverse titrations were conducted to test the binding of the known ligands and the novel chemical probes to the wild types and the mutants. Experiments were carried out either at 25° C. or 30° C. For strong binders, a concentration of 150-200 μM of the protein was injected into a solution of 15-20 μM compound. […] In cases where the compound was solubilized in dimethyl sulfoxide, DMSO concentration was adjusted to 1% both in the syringe and in the cell.
# (§5) All the data was fitted to a single binding site model using the Microcal LLC ITC200 Origin software provided by the manufacturer to yield enthalpies of binding (ΔH) and binding constants (Kas). Further thermodynamic parameters were calculated from these values (changes in entropy ΔS, changes in free energy AG and dissociation constants (Kds)).
# [2] = biological target: T2, brd4(1)L094A (Homo sapiens, UniProt O60885, L94A); settings: 30° C.
# T2 construct: Plasmids of the eight single BET bromodomain constructs Brd2(1), Brd2(2), Brd3(1), Brd3(2), Brd4(1), Brd4(2), Brdt(1) and Brdt(2); His6 (N); made in house; host or cells: E. coli BL21(DE3)
# Experimental: as §1, §2, §3, §4, §5
# [3] = biological target: T3, Brd3(1) (Homo sapiens, UniProt Q15059); settings: ITC 30° C., 1% DMSO
# T3 construct: Plasmids of the eight single BET bromodomain constructs Brd2(1), Brd2(2), Brd3(1), Brd3(2); His6 (N); made in house; host or cells: E. coli BL21(DE3)
# Experimental: as §1, §2, §3, §4, §5
# [4] = biological target: T4, brdt(2)L306A (Homo sapiens, UniProt Q58F21, L306A); settings: 30° C.
# T4 construct: Plasmids of the eight single BET bromodomain constructs Brd2(1), Brd2(2), Brd3(1), Brd3(2), Brd4(1), Brd4(2), Brdt(1) and Brdt(2); His6 (N); made in house; host or cells: E. coli BL21(DE3)
# Experimental: as §1, §2, §3, §4, §5
# [5] = biological target: T5, Brd3(1)*(Leu070-Ala) (Homo sapiens, UniProt Q15059, L70A); settings: for Selectivity factor Kd WT/Kd Leu/Ala: 30° C.
# T5 construct: Plasmids of the eight single BET bromodomain constructs Brd2(1), Brd2(2), Brd3(1), Brd3(2), Brd4(1), Brd4(2), Brdt(1) and Brdt(2); His6 (N); made in house; host or cells: E. coli BL21(DE3)
# Experimental: as §1, §2, §3, §4, §5
# [6] = biological target: T6, brd3(2)L344A (Homo sapiens, UniProt Q15059, L345A); settings: 30° C.
# T6 construct: Plasmids of the eight single BET bromodomain constructs Brd2(1), Brd2(2), Brd3(1), Brd3(2), Brd4(1), Brd4(2), Brdt(1) and Brdt(2); His6 (N); made in house; host or cells: E. coli BL21(DE3)
# Experimental: as §1, §2, §3, §4, §5
# [7] = biological target: T7, brd4(2)L387A (Homo sapiens, UniProt O60885, L387A); settings: 30° C.
# T7 construct: Plasmids of the eight single BET bromodomain constructs Brd2(1), Brd2(2), Brd3(1), Brd3(2), Brd4(1), Brd4(2), Brdt(1) and Brdt(2); His6 (N); made in house; host or cells: E. coli BL21(DE3)
# Experimental: as §1, §2, §3, §4, §5
# T5 sequence (Q15059 34-140 L70A): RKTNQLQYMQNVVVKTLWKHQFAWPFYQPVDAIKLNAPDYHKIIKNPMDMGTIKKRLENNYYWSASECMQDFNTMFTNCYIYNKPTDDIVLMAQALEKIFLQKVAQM
# T6 sequence (Q15059 306-415 L345A): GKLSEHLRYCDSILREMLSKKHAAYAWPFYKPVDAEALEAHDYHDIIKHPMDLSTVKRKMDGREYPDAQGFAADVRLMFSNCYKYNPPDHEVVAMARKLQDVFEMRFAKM
# T3 sequence (Q15059 34-140 limits assumed): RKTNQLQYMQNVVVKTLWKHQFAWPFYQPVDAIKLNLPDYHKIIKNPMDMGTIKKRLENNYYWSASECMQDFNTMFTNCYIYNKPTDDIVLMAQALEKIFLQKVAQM
structure (smiles),measurement,setting,value
"CC[C@@H](C(=O)OC)[C@@H]1N=C(c2ccc(Cl)cc2)c2cc(OC)ccc2-n2c(C)nnc21 (racemic) [Compound 11, (+−)-methyl (R)-2-((S)-6-(4-chlorophenyl)-8-methoxy-1-methyl-4H-benzo[f][1,2,4]triazolo[4,3-a][1,4]diazepin-4-yl)butanoate]",Selectivity factor Kd WT/Kd Leu/Ala,[1]; brdt(1)L063A vs WT brd2(1),48
same,Selectivity factor Kd WT/Kd Leu/Ala,[1]; brdt(1)L063A vs WT brd2(2),92
same,Selectivity factor Kd WT/Kd Leu/Ala,[1]; brdt(1)L063A vs WT brd3(1),37
same,Selectivity factor Kd WT/Kd Leu/Ala,[1]; brdt(1)L063A vs WT brd3(2),40
same,Selectivity factor Kd WT/Kd Leu/Ala,[1]; brdt(1)L063A vs WT brd4(1),67
same,Selectivity factor Kd WT/Kd Leu/Ala,[1]; brdt(1)L063A vs WT brd4(2),54
same,Selectivity factor Kd WT/Kd Leu/Ala,[1]; brdt(1)L063A vs WT brdt(1),46
same,Selectivity factor Kd WT/Kd Leu/Ala,[1]; brdt(1)L063A vs WT brdt(2),65
same,Selectivity factor Kd WT/Kd Leu/Ala,[2]; brd4(1)L094A vs WT brd2(1),206
same,Selectivity factor Kd WT/Kd Leu/Ala,[2]; brd4(1)L094A vs WT brd2(2),396
same,Selectivity factor Kd WT/Kd Leu/Ala,[2]; brd4(1)L094A vs WT brd3(1),160
same,Selectivity factor Kd WT/Kd Leu/Ala,[2]; brd4(1)L094A vs WT brd3(2),170
same,Selectivity factor Kd WT/Kd Leu/Ala,[2]; brd4(1)L094A vs WT brd4(1),292
same,Selectivity factor Kd WT/Kd Leu/Ala,[2]; brd4(1)L094A vs WT brd4(2),231
same,Selectivity factor Kd WT/Kd Leu/Ala,[2]; brd4(1)L094A vs WT brdt(1),197
same,Selectivity factor Kd WT/Kd Leu/Ala,[2]; brd4(1)L094A vs WT brdt(2),281
same,ΔH wild type Brd3(1),[3],-7 kcal/mol
same,Selectivity factor Kd WT/Kd Leu/Ala,[4]; brdt(2)L306A vs WT brd2(1),63
same,Selectivity factor Kd WT/Kd Leu/Ala,[4]; brdt(2)L306A vs WT brd2(2),122
same,Selectivity factor Kd WT/Kd Leu/Ala,[4]; brdt(2)L306A vs WT brd3(1),49
same,Selectivity factor Kd WT/Kd Leu/Ala,[4]; brdt(2)L306A vs WT brd3(2),52
same,Selectivity factor Kd WT/Kd Leu/Ala,[4]; brdt(2)L306A vs WT brd4(1),90
same,Selectivity factor Kd WT/Kd Leu/Ala,[4]; brdt(2)L306A vs WT brd4(2),71
same,Selectivity factor Kd WT/Kd Leu/Ala,[4]; brdt(2)L306A vs WT brdt(1),60
same,Selectivity factor Kd WT/Kd Leu/Ala,[4]; brdt(2)L306A vs WT brdt(2),86
same,ΔH Brd3(1)*(Leu070-Ala),"[5]; ITC 30° C., 1% DMSO",-22 kcal/mol
same,Selectivity factor Kd WT/Kd Leu/Ala,[5]; brd3(1)L070A vs WT brd2(1),244
same,Selectivity factor Kd WT/Kd Leu/Ala,[5]; brd3(1)L070A vs WT brd2(2),469
same,Selectivity factor Kd WT/Kd Leu/Ala,[5]; brd3(1)L070A vs WT brd3(1),190
same,Selectivity factor Kd WT/Kd Leu/Ala,[5]; brd3(1)L070A vs WT brd3(2),202
same,Selectivity factor Kd WT/Kd Leu/Ala,[5]; brd3(1)L070A vs WT brd4(1),346
same,Selectivity factor Kd WT/Kd Leu/Ala,[5]; brd3(1)L070A vs WT brd4(2),273
same,Selectivity factor Kd WT/Kd Leu/Ala,[5]; brd3(1)L070A vs WT brdt(1),233
same,Selectivity factor Kd WT/Kd Leu/Ala,[5]; brd3(1)L070A vs WT brdt(2),332
same,Selectivity factor Kd WT/Kd Leu/Ala,[6]; brd3(2)L344A vs WT brd2(1),135
same,Selectivity factor Kd WT/Kd Leu/Ala,[6]; brd3(2)L344A vs WT brd2(2),261
same,Selectivity factor Kd WT/Kd Leu/Ala,[6]; brd3(2)L344A vs WT brd3(1),106
same,Selectivity factor Kd WT/Kd Leu/Ala,[6]; brd3(2)L344A vs WT brd3(2),112
same,Selectivity factor Kd WT/Kd Leu/Ala,[6]; brd3(2)L344A vs WT brd4(1),192
same,Selectivity factor Kd WT/Kd Leu/Ala,[6]; brd3(2)L344A vs WT brd4(2),152
same,Selectivity factor Kd WT/Kd Leu/Ala,[6]; brd3(2)L344A vs WT brdt(1),130
same,Selectivity factor Kd WT/Kd Leu/Ala,[6]; brd3(2)L344A vs WT brdt(2),185
same,Selectivity factor Kd WT/Kd Leu/Ala,[7]; brd4(2)L387A vs WT brd2(1),45
same,Selectivity factor Kd WT/Kd Leu/Ala,[7]; brd4(2)L387A vs WT brd2(2),88
same,Selectivity factor Kd WT/Kd Leu/Ala,[7]; brd4(2)L387A vs WT brd3(2),38
same,Selectivity factor Kd WT/Kd Leu/Ala,[7]; brd4(2)L387A vs WT brd4(1),65
same,Selectivity factor Kd WT/Kd Leu/Ala,[7]; brd4(2)L387A vs WT brd4(2),51
same,Selectivity factor Kd WT/Kd Leu/Ala,[7]; brd4(2)L387A vs WT brdt(1),44
same,Selectivity factor Kd WT/Kd Leu/Ala,[7]; brd4(2)L387A vs WT brdt(2),62
